Several values for one entry are separate records, joined by “and”; a condition that tells them apart may be missing. Identical values can stand only once.
Test system: 422866-222-R5-J1-PDC spheroid viability
Assay: Anticancer human tumor 422866-222-R5-J1-PDC patient-derived pancreatic adenocarcinoma cell line growth inhibition [CLK]
Details: spheroids with HUVEC and MSC; for viability, T/C: stronger effect = lower value
Outline: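 Patient-derived tumor cells grown as complex spheroids with HUVEC endothelial cells and mesenchymal stem cells, treated with drug combinations. Concentrations descend in half-log steps from near clinical Cmax, or from 10 microM if Cmax unknown.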

[1] = curve of first compound, second compound 0.0316 µM
[2] = curve of first compound, second compound 0.1 µM
[3] = curve of first compound, second compound 0.316 µM
[4] = curve of first compound, second compound 1 µM
[5] = curve of first compound, second compound 3.16 µM
[6] = curve of first compound, second compound 10 µM
[7] = second compound 0.0316 µM, first compound 0.0316 µM
[8] = second compound 0.0316 µM, first compound 0.1 µM
[9] = second compound 0.0316 µM, first compound 0.316 µM
[10] = second compound 0.0316 µM, first compound 1 µM
[11] = second compound 0.0316 µM, first compound 3.16 µM
[12] = second compound 0.0316 µM, first compound 10 µM
[13] = second compound 0.1 µM, first compound 0.0316 µM
[14] = second compound 0.1 µM, first compound 0.1 µM
[15] = second compound 0.1 µM, first compound 0.316 µM
[16] = second compound 0.1 µM, first compound 1 µM
[17] = second compound 0.1 µM, first compound 3.16 µM
[18] = second compound 0.1 µM, first compound 10 µM
[19] = second compound 0.316 µM, first compound 0.0316 µM
[20] = second compound 0.316 µM, first compound 0.1 µM
[21] = second compound 0.316 µM, first compound 0.316 µM
[22] = second compound 0.316 µM, first compound 1 µM
[23] = second compound 0.316 µM, first compound 3.16 µM
[24] = second compound 0.316 µM, first compound 10 µM
[25] = second compound 1 µM, first compound 0.0316 µM
[26] = second compound 1 µM, first compound 0.1 µM
[27] = second compound 1 µM, first compound 0.316 µM
[28] = second compound 1 µM, first compound 1 µM
[29] = second compound 1 µM, first compound 3.16 µM
[30] = second compound 1 µM, first compound 10 µM
[31] = second compound 3.16 µM, first compound 0.0316 µM
[32] = second compound 3.16 µM, first compound 0.1 µM
[33] = second compound 3.16 µM, first compound 0.316 µM
[34] = second compound 3.16 µM, first compound 1 µM
[35] = second compound 3.16 µM, first compound 3.16 µM
[36] = second compound 3.16 µM, first compound 10 µM
[37] = second compound 10 µM, first compound 0.0316 µM
[38] = second compound 10 µM, first compound 0.1 µM
[39] = second compound 10 µM, first compound 0.316 µM
[40] = second compound 10 µM, first compound 1 µM
[41] = second compound 10 µM, first compound 3.16 µM
[42] = second compound 10 µM, first compound 10 µM
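Further: spheroids exposed to agents for seven days before readout.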

## CC1COCCN1c1cc(C2(S(C)(=N)=O)CC2)nc(-c2ccnc3[nH]ccc23)n1 (stereo not drawn) + CNC(=O)c1ccc(Nc2nc(OC3CCCC3)c3c(-c4ccc5nc(C)oc5c4)c[nH]c3n2)c(OC)c1
[1]
  IC50: 7150 nM
[2]
  IC50: > 10000 nM
[3]
  IC50: 2560 nM
[4]
  IC50: 1560 nM
[5]
  IC50: 973 nM
[6]
  IC50: 630 nM
[7]
  viability, T/C: 108%
[8]
  viability, T/C: 137%
[9]
  viability, T/C: 104%
[10]
  viability, T/C: 102%
[11]
  viability, T/C: 59.6%
[12]
  viability, T/C: 46.2%
[13]
  viability, T/C: 106%
[14]
  viability, T/C: 98.4%
[15]
  viability, T/C: 88%
[16]
  viability, T/C: 84.6%
[17]
  viability, T/C: 56.9%
[18]
  viability, T/C: 60.6%
[19]
  viability, T/C: 79.8%
[20]
  viability, T/C: 71.6%
[21]
  viability, T/C: 69.3%
[22]
  viability, T/C: 58%
[23]
  viability, T/C: 43.5%
[24]
  viability, T/C: 50.5%
[25]
  viability, T/C: 61.4%
[26]
  viability, T/C: 66.7%
[27]
  viability, T/C: 59.3%
[28]
  viability, T/C: 52.1%
[29]
  viability, T/C: 43.6%
[30]
  viability, T/C: 52.5%
[31]
  viability, T/C: 65.3%
[32]
  viability, T/C: 65.1%
[33]
  viability, T/C: 58.3%
[34]
  viability, T/C: 50%
[35]
  viability, T/C: 44.8%
[36]
  viability, T/C: 53.8%
[37]
  viability, T/C: 64.5%
[38]
  viability, T/C: 69.2%
[39]
  viability, T/C: 58.8%
[40]
  viability, T/C: 42.2%
[41]
  viability, T/C: 39.8%
[42]
  viability, T/C: 50.4%

## COc1c(OCCCN2CCOCC2)ccc2c3n(c(=NC(=O)c4cnc(N)nc4)nc12)CCN3
Compound 0.00316 µM
  viability, T/C: 78.6% and 87.6%
Compound 0.01 µM
  viability, T/C: 57.4% and 58.9%
Compound 0.0316 µM
  viability, T/C: 37.6% and 32.8%
Compound 0.1 µM
  viability, T/C: 33.2% and 29.1%
Compound 0.316 µM
  viability, T/C: 29.7% and 26%
Compound 1 µM
  viability, T/C: 32.4% and 33.2%
Curve of compound
  IC50: 15.4 nM and 14.8 nM

## CCCS(=O)(=O)Nc1ccc(F)c(C(=O)c2c[nH]c3ncc(-c4ccc(Cl)cc4)cc23)c1F
Compound 0.0316 µM
  viability, T/C: 103% and 89.2%
Compound 0.1 µM
  viability, T/C: 100% and 86%
Compound 0.316 µM
  viability, T/C: 128% and 114%
Compound 1 µM
  viability, T/C: 147% and 152%
Compound 3.16 µM
  viability, T/C: 169% and 165%
Compound 10 µM
  viability, T/C: 137% and 149%
Curve of compound
  IC50: > 10000 nM

## COC1C=CCC(C)C(C)S(=O)(=O)NC(=O)c2ccc3c(c2)N(CC2CCC21)CC1(CCCc2cc(Cl)ccc21)CO3 (stereo not drawn) + CN1CCN(c2cc(C(=O)Nc3cc4cc(-c5cnn(C)c5)ccc4cn3)ccn2)CC1
[1]
  IC50: > 10000 nM
[2]
  IC50: > 10000 nM
[3]
  IC50: > 10000 nM
[4]
  IC50: < 31.6 nM
[5]
  IC50: < 31.6 nM
[6]
  IC50: < 31.6 nM
[7]
  viability, T/C: 102%
[8]
  viability, T/C: 102%
[9]
  viability, T/C: 113%
[10]
  viability, T/C: 98.1%
[11]
  viability, T/C: 97%
[12]
  viability, T/C: 76.8%
[13]
  viability, T/C: 131%
[14]
  viability, T/C: 104%
[15]
  viability, T/C: 105%
[16]
  viability, T/C: 107%
[17]
  viability, T/C: 114%
[18]
  viability, T/C: 94.7%
[19]
  viability, T/C: 103%
[20]
  viability, T/C: 92.8%
[21]
  viability, T/C: 104%
[22]
  viability, T/C: 99%
[23]
  viability, T/C: 113%
[24]
  viability, T/C: 105%
[25]
  viability, T/C: 29.4%
[26]
  viability, T/C: 28.8%
[27]
  viability, T/C: 38.5%
[28]
  viability, T/C: 28.9%
[29]
  viability, T/C: 38.7%
[30]
  viability, T/C: 39.2%
[31]
  viability, T/C: 8.76%
[32]
  viability, T/C: 9.13%
[33]
  viability, T/C: 9.74%
[34]
  viability, T/C: 7.9%
[35]
  viability, T/C: 9.36%
[36]
  viability, T/C: 5.17%
[37]
  viability, T/C: 2.4%
[38]
  viability, T/C: 1.91%
[39]
  viability, T/C: 1.69%
[40]
  viability, T/C: 1.81%
[41]
  viability, T/C: 2.33%
[42]
  viability, T/C: 3.52%
